# Measured values as given in patent EP0173480A2, “The antiviral use of phyllanthostatins” (priority 1984, dated 1986).
# How the values were obtained:
# Type in all cases: in vivo
# [1] = test system: Herpes Simplex virus type 2 (HSV-2, strain 35D); test: Genital HSV-2 infection of female mice, intravaginal treatment, survival; settings: for %S (percent survivors) / MDD (mean day of death): N 14; for deaths: zinc acetate (0.1M)
# [2] = test system: Herpes Simplex virus type 2 (HSV-2, strain 35D); test: Genital HSV-2 infection of female mice, virus titers in vaginal secretions; settings: 8.0 x 10^4 PFU; for Mean virus titer in swabs of mice which shed virus: value in brackets;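 on Mean virus titer in swabs of mice which shed virus: titer expressed as log PFU per ml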
# [3] = Drug toxicity in non-infected female mice treated intravaginally; settings: zinc acetate intravaginally 3 x daily x 5 days, compared with saline
# Protocol: Where indicated, non-infected mice (5 per group) were treated identically (3 times daily x 5) in order to determine drug toxicity. The groups of mice were weighed at the indicated times.
# Non-infected female mice were treated intravaginally with the same drugs, at the same concentrations and with a schedule (3 x daily x 5 days). Animal weights were determined at the time of initiation of treatment (day 0), and again on day 4 (after 12 treatments were given), and again after treatments had been concluded on days 7, 11 and 15. The weights of the groups of mice treated with placebo or the high drug concentrations are shown on Table 3, and the differences in weights in Figure 4. […] Weight gains in mice treated with phyllanthoside (1 mg/ml) were slightly less than that of the above compounds, but by day 15, the mice had the same gain as those treated with phyllanthostatin I, saline or zinc acetate.
# [4] = 8.0 x 10^3 PFU/0.1 ml, mg/ml cell empty (44 mg/ml in upper section)
# [5] = 8.0 x 10^4 PFU/0.1 ml, 44 mg/ml intravaginally
# [6] = day 2 after HSV-2 inoc., Zn(OAc)2 concentration not given
# [7] = day 3 after HSV-2 inoc., Zn(OAc)2 concentration not given
# [8] = day 4 after HSV-2 inoc., Zn(OAc)2 concentration not given
substance,measurement,setting,value
"zinc acetate [Zn(OAc)2, reference compound]",%S (percent survivors),[1]; [4],79%
same,MDD (mean day of death),[1]; [4],3.0 days
same,deaths,"[1]; 8.0 x 10^3 PFU, two of the three deaths on day 4, probably not virus related",21.4%
same,%S (percent survivors),[1]; [5],71%
same,MDD (mean day of death),[1]; [5],8.3 days
same,deaths,[1]; 8.0 x 10^4 PFU,50%
same,mice protected from lethal infection,"[1]; second study, 8.0 x 10^4 PFU in 0.1 ml, positive control, concentration not given, 10 mice",80%
same,Mean virus titer in swabs of mice which shed virus,"[2]; day 1 after HSV-2 inoc., Zn(OAc)2 concentration not given",(2.60) log PFU/ml
same,"Nv/Nt, swabs with virus/total swabs","[2]; day 1 after HSV-2 inoc., Zn(OAc)2 concentration not printed",1/10
same,"Nv/Nt, swabs with virus/total swabs","[2]; day 1 after HSV-2 inoc., Zn(OAc)2 concentration not printed, listed as zinc acetate",One of 10
same,"Nv/Nt, swabs with virus/total swabs",[2]; [6],1/10
same,Mean virus titer in swabs of mice which shed virus,[2]; [6],(3.54) log PFU/ml
same,"Nv/Nt, swabs with virus/total swabs",[2]; [7],1/10
same,Mean virus titer in swabs of mice which shed virus,[2]; [7],(3.42) log PFU/ml
same,"Nv/Nt, swabs with virus/total swabs",[2]; [8],1/9
same,Mean virus titer in swabs of mice which shed virus,[2]; [8],(4.54) log PFU/ml
same,"Nv/Nt, swabs with virus/total swabs","[2]; day 7 after HSV-2 inoc., Zn(OAc)2 concentration not given",0/8
same,weight changes,[3],essentially the same
